Data published in patent publication US7829587B2, “Substituted 2-aminotetralin derivatives as selective alpha 2B agonist” (Allergan, Inc., priority 2008, dated 2010).

Key:
Format in all cases: cell-based
human α2A receptor = biological target: T1, human α2A receptor (Homo sapiens, UniProt P08913); assay: FLIPR Ca+2 influx assay, α2A; conditions: for EC50: HEK 293 cells stably expressing human α2A receptor and chimeric G protein Gqi5; for Relative efficacy FLIPR α2A: relative efficacy compared to standard full agonist norepinephrine, HEK 293, human α2A/Gqi5
T1 construct: expressed in transfected cells; host or cells: HEK 293
T1 sequence (P08913 1-465): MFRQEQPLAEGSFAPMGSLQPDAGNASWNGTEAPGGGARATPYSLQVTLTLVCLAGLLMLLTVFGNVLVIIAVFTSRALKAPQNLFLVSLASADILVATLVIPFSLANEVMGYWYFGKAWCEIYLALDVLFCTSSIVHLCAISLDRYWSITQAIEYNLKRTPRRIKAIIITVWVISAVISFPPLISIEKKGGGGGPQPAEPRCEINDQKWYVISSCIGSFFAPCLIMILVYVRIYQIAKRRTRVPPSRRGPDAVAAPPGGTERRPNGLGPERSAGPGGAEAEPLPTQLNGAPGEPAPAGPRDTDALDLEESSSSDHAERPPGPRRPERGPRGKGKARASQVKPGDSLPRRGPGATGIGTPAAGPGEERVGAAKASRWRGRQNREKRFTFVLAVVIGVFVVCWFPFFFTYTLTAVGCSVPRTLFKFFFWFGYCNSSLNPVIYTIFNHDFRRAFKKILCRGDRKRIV
Method: (§1) The compounds disclosed herein are agonists of alpha 2B/2C adrenergic receptors. […] This assay is adequate for monitoring the intracellular Ca^2+ mobilization from fluorescent reading to evaluate receptor agonists.
(§2) FLIPR Ca+2 Influx Assay: HEK 293 cells stably expressing the bovine α1A receptor, the rat α1B receptor, the human α2A receptor and the chimeric G protein Gqi5, the human α2C receptor and the chimeric G protein Gqi5 and the mouse α2B receptor and the Gα16 protein were plated in poly-D-lysine coated 384 well plates at 15,000-25,000 cells per well and grown overnight in DMEM supplemented with 10% fetal bovine serum. For FLIPR (fluorometric image plate reader) evaluation, cells were washed 2-4 times with HBSS/HEPES Buffer (1× Hanks Buffered Salt Solution, 20 mM HEPES<pH 7.4) prior to the addition of Fluo-4-AM (4 uM Fluo-4-AM, 0.04% pluronic acid in HBSS/HEPES Buffer), a calcium-sensitive dye. Cells were loaded with Dye for 40 minutes at 30° C., then washed 4-8 times with HBSS/HEPES Buffer to remove excess dye. Cells were preincubated at 37° C. for 3 minutes prior to placement into the FLIPR instrument. The reaction was carried out at 37° C. and was initiated by the addition of the appropriate dilutions of compounds. The transient calcium was captured and the peak height of the calcium curve determined and utilized for calculation of EC50 and efficacy using ActivityBase. Data is stored in the ActivityBase database under the unique identifier “Test Occasion”, which reflects the results of an assay run on a particular date and the individual responsible for the assay. Norepinephrine was the standard full agonist for evaluating alpha1 and alpha2 receptor activity.

mouse α2B receptor = biological target: T2, mouse α2B receptor (Mus musculus, UniProt P30545); assay: FLIPR Ca+2 influx assay, α2B; conditions: for Relative efficacy FLIPR α2B: relative efficacy compared to standard full agonist norepinephrine, HEK 293, mouse α2B/Gα16
T2 construct: expressed in transfected cells; host or cells: HEK 293
T2 sequence (P30545 1-453): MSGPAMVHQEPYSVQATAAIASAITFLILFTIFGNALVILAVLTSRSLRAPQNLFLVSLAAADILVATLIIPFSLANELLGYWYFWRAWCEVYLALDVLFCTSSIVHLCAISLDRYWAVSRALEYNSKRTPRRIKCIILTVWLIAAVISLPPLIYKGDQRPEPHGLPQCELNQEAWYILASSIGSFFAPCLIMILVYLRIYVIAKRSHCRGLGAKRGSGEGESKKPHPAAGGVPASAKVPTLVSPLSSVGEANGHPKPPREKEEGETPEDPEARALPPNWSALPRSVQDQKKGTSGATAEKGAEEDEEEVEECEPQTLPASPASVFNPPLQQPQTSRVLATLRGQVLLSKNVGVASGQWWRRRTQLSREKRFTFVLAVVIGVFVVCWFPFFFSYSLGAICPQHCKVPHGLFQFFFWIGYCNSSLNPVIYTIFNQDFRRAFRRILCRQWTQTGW
Method: as §1, §2

human α2C receptor = biological target: T3, human α2C receptor (Homo sapiens, UniProt P18825); assay: FLIPR Ca+2 influx assay, α2C; conditions: for EC50: HEK 293 cells stably expressing human α2C receptor and chimeric G protein Gqi5; for Relative efficacy FLIPR α2C: relative efficacy compared to standard full agonist norepinephrine, HEK 293, human α2C/Gqi5
T3 construct: expressed in transfected cells; host or cells: HEK 293
T3 sequence (P18825 1-462): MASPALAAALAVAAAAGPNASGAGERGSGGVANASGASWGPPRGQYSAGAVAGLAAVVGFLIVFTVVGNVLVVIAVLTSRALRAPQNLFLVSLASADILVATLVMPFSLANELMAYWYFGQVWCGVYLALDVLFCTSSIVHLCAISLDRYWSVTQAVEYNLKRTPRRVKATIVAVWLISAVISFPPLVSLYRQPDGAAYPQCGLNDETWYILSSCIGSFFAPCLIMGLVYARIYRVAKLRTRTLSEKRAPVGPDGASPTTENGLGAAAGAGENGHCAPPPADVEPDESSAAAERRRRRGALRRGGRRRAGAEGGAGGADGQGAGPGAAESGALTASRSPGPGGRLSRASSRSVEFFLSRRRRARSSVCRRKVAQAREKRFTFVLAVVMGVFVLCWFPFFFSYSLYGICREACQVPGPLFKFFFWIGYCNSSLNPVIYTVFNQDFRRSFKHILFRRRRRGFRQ
Method: as §1, §2

rat α1B receptor = biological target: T4, rat α1B receptor (Rattus norvegicus, UniProt P15823); assay: FLIPR Ca+2 influx assay, α1B; conditions: for EC50: HEK 293 cells stably expressing rat α1B receptor; for Relative efficacy FLIPR α1B: relative efficacy compared to standard full agonist norepinephrine, HEK 293, rat α1B
T4 construct: expressed in transfected cells; host or cells: HEK 293
T4 sequence (P15823 1-515): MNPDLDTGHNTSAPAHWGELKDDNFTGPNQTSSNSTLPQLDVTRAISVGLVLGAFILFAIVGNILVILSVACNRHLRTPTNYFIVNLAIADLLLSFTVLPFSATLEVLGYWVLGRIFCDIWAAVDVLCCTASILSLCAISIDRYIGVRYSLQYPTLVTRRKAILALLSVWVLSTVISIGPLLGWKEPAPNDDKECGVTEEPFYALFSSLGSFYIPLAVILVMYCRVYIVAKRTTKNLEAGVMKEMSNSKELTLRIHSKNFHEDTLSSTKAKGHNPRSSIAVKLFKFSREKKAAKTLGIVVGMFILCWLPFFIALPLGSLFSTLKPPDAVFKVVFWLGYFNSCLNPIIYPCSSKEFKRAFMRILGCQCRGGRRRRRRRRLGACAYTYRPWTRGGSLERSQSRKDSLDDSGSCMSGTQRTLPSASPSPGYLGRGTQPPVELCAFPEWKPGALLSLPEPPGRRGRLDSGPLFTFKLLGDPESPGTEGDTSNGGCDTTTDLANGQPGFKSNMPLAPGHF
Method: as §1, §2

bovine α1A receptor = biological target: T5, bovine α1A receptor (Bos taurus, UniProt P18130); assay: FLIPR Ca+2 influx assay, α1A; conditions: for EC50: HEK 293 cells stably expressing bovine α1A receptor; for Relative efficacy FLIPR α1A: relative efficacy compared to standard full agonist norepinephrine, HEK 293, bovine α1A
T5 construct: expressed in transfected cells; host or cells: HEK 293
T5 sequence (P18130 1-466): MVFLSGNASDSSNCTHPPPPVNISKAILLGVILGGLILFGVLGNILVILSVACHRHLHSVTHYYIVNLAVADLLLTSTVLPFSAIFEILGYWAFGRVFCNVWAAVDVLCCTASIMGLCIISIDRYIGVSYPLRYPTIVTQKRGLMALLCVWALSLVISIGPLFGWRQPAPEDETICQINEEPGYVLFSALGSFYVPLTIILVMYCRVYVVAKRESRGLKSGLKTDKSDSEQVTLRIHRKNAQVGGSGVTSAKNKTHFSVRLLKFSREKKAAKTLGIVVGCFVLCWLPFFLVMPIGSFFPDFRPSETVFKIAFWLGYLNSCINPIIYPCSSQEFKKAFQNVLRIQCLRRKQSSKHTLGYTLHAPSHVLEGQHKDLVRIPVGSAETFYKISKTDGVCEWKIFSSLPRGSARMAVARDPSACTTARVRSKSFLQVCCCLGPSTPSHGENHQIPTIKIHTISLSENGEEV
Method: as §1, §2

[1] = HEK 293 cells stably expressing mouse α2B receptor and Gα16 protein

Structure (SMILES) | EC50 (human α2A receptor) | Relative efficacy FLIPR α2A (human α2A receptor) | EC50 (mouse α2B receptor; [1]) | Relative efficacy FLIPR α2B (mouse α2B receptor) | EC50 (human α2C receptor) | Relative efficacy FLIPR α2C (human α2C receptor) | EC50 (rat α1B receptor) | Relative efficacy FLIPR α1B (rat α1B receptor) | EC50 (bovine α1A receptor) | Relative efficacy FLIPR α1A (bovine α1A receptor) | EC50 FLIPR α2B (mouse α2B receptor; [1])
CCCN(Cc1ccncc1)C1CCc2cccc(OC)c2C1 (stereo not shown) | 1.85 µM | 0.22 | 0.036 µM | 1.0 | 2.15 µM | 0.69 | > 10 µM | 0 | > 10 µM | 0 | 
CCCN(Cc1ccncc1)[C@@H]1CCc2cccc(OC)c2C1 | 0.424 µM | 0.34 |  | 1.02 | 0.557 µM | 0.67 | > 10 µM | 0 | > 10 µM | 0 | potent
CCCN(Cc1ccncc1)C1CCc2cccc(O)c2C1 (stereo not shown) | > 10 µM | 0 | 0.058 µM | 1.06 |  | ND (0.12) | > 10 µM | 0 | > 10 µM | 0 | 
CCCN(Cc1ccncc1)[C@@H]1CCc2cccc(O)c2C1 | > 10 µM | 0 | 0.004 µM | 0.8 | > 10 µM | 0 | > 10 µM | 0 | > 10 µM | 0 | 
CCN(Cc1ccncc1)C1CCc2cccc(OC)c2C1 (stereo not shown) | 0.203 µM | 0.74 | 0.078 µM | 0.91 | 0.253 µM | 0.72 | > 10 µM | 0 | > 10 µM | 0 | 
CCN(Cc1ccncc1)C1CCc2cccc(O)c2C1 (stereo not shown) | 5.5 µM | 0.16 | 0.185 µM | 1.08 | 6.7 µM | 0.17 |  | ND (0.15) |  | ND (0.1) | 
CCN(Cc1cccnc1)C1CCc2cccc(OC)c2C1 (stereo not shown) | 0.442 µM | 0.51 | 0.614 µM | 0.26 | 0.652 µM | 0.52 | > 10 µM | 0 | > 10 µM | 0 | 
CCN(Cc1cccnc1)C1CCc2cccc(O)c2C1 (stereo not shown) | 4.5 µM | 0.35 | 0.873 µM | 0.89 |  | ND (0.43) |  | ND (0.36) | 4 µM | 0.29 | 
CCN(Cc1ccccn1)C1CCc2cccc(OC)c2C1 (stereo not shown) | > 10 µM | 0 | 0.647 µM | 0.14 | > 10 µM | 0 | > 10 µM | 0 | > 10 µM | 0 | 
CCN(Cc1ccccn1)C1CCc2cccc(O)c2C1 (stereo not shown) | > 10 µM | 0 | 0.733 µM | 0.28 | > 10 µM | 0 | > 10 µM | 0 | > 10 µM | 0 | 
CCCN(Cc1cccnc1)C1CCc2cccc(OC)c2C1 (stereo not shown) | > 1 µM | 0 | 0.82 µM | 0.47 |  | ND (0.13) | > 10 µM | 0 | > 10 µM | 0 | 
CCCN(Cc1ccccn1)C1CCc2cccc(OC)c2C1 (stereo not shown) | > 10 µM | 0 | 0.363 µM | 0.63 | > 10 µM | 0 | > 10 µM | 0 | > 10 µM | 0 | 
CCCN(Cc1ccccn1)C1CCc2cccc(O)c2C1 (stereo not shown) [drawing 20] | > 10 µM | 0 | 0.568 µM | 0.69 | > 10 µM | 0 | > 10 µM | 0 | > 10 µM | 0 | 
